Structures can show the parent of a compound that is named as a salt. Where two headings read alike, the source gives them in different places.
Columns and labels:
[1] = test system: A549 cells; assay: Wound-healing assay (cell migration); type: cell-based; conditions: for wound closure: A549, 4.4 µM
Experimental: A549 cells were seeded in a 12-well plate at a density of 4 × 10^5 cells/well and incubated in an incubator with 5% CO2 atmosphere at 37 °C for 24 h. After the incubation period, a straight-line wound was made with the aid of a p200 tip, the supernatant was discarded, and the wells were washed twice with 1 × PBS to remove loose cells. Cells were treated with compound 1 at concentrations of 1.1, 2.2 and 4.4 µM. 0.02% Dimethyl sulfoxide and 0.2 μM Doxorubicin were used as a negative control and positive control, respectively. Images of wound closure were acquired at 0, 24 and 48 h of treatment with an Olympus microscope. The images were analyzed using the ImageJ software version 1.46.

[2] = test system: melanoma (B16-F10) cells; assay: Sulforhodamine B (SRB) cell growth inhibition assay, B16-F10; type: cell-based; conditions: for IC50: B16-F10, SRB, 72 h, value (95% confidence interval), read-out: IC50 (maximum 50% inhibitory concentration of cell growth)
Experimental: (§1) The cell lines of lung adenocarcinoma (A549), melanoma (B16-F10) and glioma (C6) were purchased from the Federal University of Rio de Janeiro. Cells were maintained in cell culture flasks in Dulbeccos's Modified Eagle Medium (DMEM) supplemented with 10% Fetal Bovine Serum (FBS) and 1% antibiotic (10,000 U/mL penicillin; […] streptomycin) and incubated at 37 °C in an atmosphere of 5% CO2. After reaching the necessary confluence for carrying out the experiments, the medium was removed, and the cells detached from the bottle using a 0.25% Trypsin–EDTA solution for a period of 1 to 15 min. After this step, the Trypsin–EDTA solution was inactivated with culture medium and the cells were centrifuged, with rotation of 153 G for 10 min at 4 °C. The pellet formed was resuspended in culture medium and the cells were counted in a Neubauer chamber to carry out the experiments.
(§2) For this experiment, A549, B16-F10 and C6 cells were seeded in 96-well plates at a density of 1 × 10^4 cells/well. After an incubation period of 24 h in a humidified incubator at 37 °C with 5% CO2 atmosphere for adhesion, the cells were treated with lawsone and lawsone derivatives (compounds 1, 2 and 3) for 72 h with concentrations from 25 µM to 0.8 µM. Cells were fixed with 100 μL of 30% trichloroacetic acid for 1 h in a refrigerator at 4 °C. Then, the plate was washed 4 times with water and set to dry. After the drying period, 100 μL of 0.057% Sulforhodamine B (SRB) solution (w/v) dissolved in 1% acetic acid was added for 30 min at room temperature. Then the plate was washed 4 times with 1% acetic acid to remove excess dye. After drying, 200 μL of TRIS 10 mM pH 10.5 was added to dilute the SRB for 30 min. The reading was made in a spectrophotometer (Biotek—H1 Synergy) with a wavelength of 510 nm.
(§3) Based on the inhibitory degree of the derivatives, the IC50 of the compounds were calculated. The IC50 is the concentration capable of inhibiting 50% of cell growth. The compound that presented the lowest IC50 was compound 1, being selected for evaluation in the following experiments. For this, IC50 values were used as a basis to define concentrations of half of the IC50, the IC50 value and twice the IC50.

[3] = test system: B16-F10 cells; assay: Giemsa staining, morphological changes, B16-F10; type: cell-based; conditions: 24 h
Experimental: (§4) A549, B16-F10 and C6 cells were seeded on coverslips in 24-well plates at a density of 2 × 10^4 cells/well. After 24 h, cells were treated with the compound 1 derivative using 1.1, 2.2 and 4.4 μM for A549 and C6, and 0.75, 1.5 and 3 µM for B16-F10 for 24 h. After treatment, cells were washed twice with phosphate-buffered saline (PBS) and fixed with methyl alcohol for 3 min. Then cells were stained with Giemsa for 1 min. The slides were evaluated under an optical microscope (Olympus) and the images were captured at 400 × magnification.

[4] = test system: glioma (C6) cells; assay: Sulforhodamine B (SRB) cell growth inhibition assay, C6; type: cell-based; conditions: for IC50: C6, SRB, 72 h, value (95% confidence interval), read-out: IC50 (maximum 50% inhibitory concentration of cell growth)
Experimental: as §1, §2, §3

[5] = test system: A549 cells; assay: Giemsa staining, morphological changes, A549; type: cell-based; conditions: A549, 2.2 and 4.4 μM, 24 h
Experimental: as §4

[6] = test system: C6 cells; assay: Giemsa staining, morphological changes, C6; type: cell-based; conditions: 24 h
Experimental: as §4

[7] = test system: lung adenocarcinoma (A549) cells; assay: Sulforhodamine B (SRB) cell growth inhibition assay, A549; type: cell-based; conditions: for IC50: A549, SRB, 72 h, value (95% confidence interval), read-out: IC50 (maximum 50% inhibitory concentration of cell growth)
Experimental: as §1, §2, §3

[8] = test system: A549 cells; assay: Clonogenic assay; type: cell-based; conditions: Homo sapiens, 72 h treatment, read-out: inhibition of colony formation
Experimental: A549 cells were seeded in a 6-well plate at a density of 150 cells/well and incubated in an incubator with 5% CO2 atmosphere at 37 °C. After 24 h, cells were treated with the compound 1 at concentrations of 1.1, 2.2 and 4.4 µM for 72 h. Dimethyl sulfoxide 0.02% and Doxorubicin 0.2 μM were used as negative control and positive control respectively. The treatment was removed and replaced with a supplemented DMEM medium. The cells were incubated in an atmosphere of 5% CO2 at 37 °C. After 6 days, cells were fixed with methanol + acetic acid (3:1) for 5 min and stained with 0.5% crystal violet in water for 30 min. The plates were photographed, and the images were analyzed using ImageJ 1.46 software.

[9] = test system: A549 cells; assay: Annexin V-FITC/PI assay (flow cytometry); type: cell-based; conditions: 24 h
Experimental: A549 cells were seeded in 12-well plates in DMEM medium supplemented with FBS and 1% antibiotic (10,000 U/ml penicillin; […] streptomycin) with a density equal to 2 × 10^5 cells/well and incubated for 24 h. Then, the cells were treated with the compound 1 at concentrations of 1.1, 2.2 and 4.4 µM, for 24 h. Dimethyl sulfoxide 0.02% was used as negative control and 0.2 μM Doxorubicin were used as positive control. After treatment, cells were detached with Accutase solution, transferred to tubes, and washed with PBS. After washing the cells were stained with Annexin V-FITC/PI according to the manufacturer. Samples were analyzed by flow cytometry (Attune NxT Acoustic Focusing Cytometer, Thermo Fisher Scientific). Cells without labeling were considered viable, cells positive only for Annexin V/FITC were considered cells in apoptosis, cells with double labeling for Annexin V/FITC and propidium iodide were considered cells in late apoptosis and cells positive only for iodide propidium were considered cells in necrosis.

[10] = Hemolytic assay; type: cell-based, human; conditions: human erythrocytes (2% suspension); human erythrocytes, 110 µM, 1 h; read-out: hemolysis percentage
Experimental: (§5) The hemolytic activity of the compound 1 was tested using human erythrocytes from healthy volunteers. […] Triton X 100 (0.1%) and Dimethyl sulfoxide (0.1%) were used as positive and negative hemolysis controls, respectively. Erythrocytes were kept under agitation at a temperature of 37 °C for 1 h. After this time, the plate was centrifuged at 405 × g for 5 min and 0.15 mL of the transferred supernatant was read in a spectrophotometer (Biotek—H1 Synergy) with an absorbance of 540 nm.

[11] = test system: human erythrocytes; assay: Hemolytic assay; type: cell-based
Experimental: as §5

C#CCOC1=CC(=O)c2ccccc2C1=O [Compound 1, O-propargyllawsone]
effect on cell migration ([1]; A549, 1.1 µM, 24 or 48 h): no significant reduction of migration
reduction of wound closure ([1]; A549, 2.2 µM, 48 h): 33%
wound closure ([1]; 24 h): 18%
wound closure ([1]; 48 h): 56%
growth inhibition category ([2]; B16-F10, 72 h, concentrations from 25 to 6.3 µM): high (high inhibition when above 75%)
IC50 [2]: 1.5 µM
IC50 ([2]; Mus musculus, B16-F10, 72 h): < 2.2 µM
morphological changes (Giemsa) ([3]; B16-F10, 0.75 µM): reduced cytoplasmic volume and the appearance of apoptotic cells
morphological changes (Giemsa) ([3]; B16-F10, 1.5 and 3 µM): reduction in cytoplasm and apoptotic cells
growth inhibition category ([4]; C6, 72 h, concentrations from 25 to 6.3 µM): high (high inhibition when above 75%)
IC50 [4]: 2.2 µM
IC50 ([4]; Rattus norvegicus, C6, 72 h): < 2.2 µM
morphological changes (Giemsa) [5]: reduction in cytoplasm and apoptotic cells
morphological changes (Giemsa) ([6]; C6, 1.1 µM): reduced cytoplasmic volume and the appearance of apoptotic cells
morphological changes (Giemsa) ([6]; C6, 2.2 and 4.4 μM): reduction in cytoplasm and apoptotic cells
growth inhibition category ([7]; A549, 72 h, concentrations from 25 to 6.3 µM): high (high inhibition when above 75%)
IC50 [7]: 2.2 µM
IC50 ([7]; Homo sapiens, A549, 72 h): < 2.5 µM
inhibitory potential relative to lawsone ([7]; compared with lawsone IC50, cell line not specified): at least 10 times
inhibition at 1.1 µM ([8]; A549, 1.1 µM, compared to the negative control): 31.1%
inhibition at 2.2 µM ([8]; A549, 2.2 µM, compared to the negative control): 82.1%
inhibition at 4.4 µM ([8]; A549, 4.4 µM, compared to the negative control): 98.1%
changes in the percentage of living, apoptotic or necrotic cells ([9]; A549, 1.1 µM and 2.2 µM): not able to induce significant changes
cells undergoing apoptosis ([9]; A549, 4.4 µM): 47.8%
cells undergoing necrosis ([9]; A549, 4.4 µM): 39.7%
percentage of living cells ([9]; A549, 4.4 µM): 12.4%
hemolysis at 1 h, 110 µM [10]: < 0.5%
toxicity to erythrocytes ([11]; highest concentration tested of 110 µM): not toxic to erythrocytes
hemolytic effect ([11]; human erythrocytes, 13.75, 27.5 and 55 µM, 1 h): no hemolytic effect

O=C1C=C(OCc2cn(-c3ccccc3)nn2)C(=O)c2ccccc21 [Compound 2]
growth inhibition category ([2]; B16-F10, 72 h, concentrations 12.5 to 0.8 µM): low (low when below 50%)
IC50 [2]: 14.2 µM
IC50 ([2]; Mus musculus, B16-F10, 72 h): > 14 µM
inhibition at 25 µM ([2]; Mus musculus, B16-F10, 72 h, 25 µM, read-out: growth inhibition category): 50 to 75%
growth inhibition category ([4]; C6, 72 h, concentrations 12.5 to 0.8 µM): low (low when below 50%)
IC50 ([4]; listed as compound 2): > 14 µM
IC50 [4]: 43.4 µM
growth inhibition category ([7]; A549, 72 h, concentrations 12.5 to 0.8 µM): low (low when below 50%)
IC50 [7]: 14.9 µM
IC50 ([7]; Homo sapiens, A549, 72 h): > 14 µM
inhibition at 25 µM ([7]; Homo sapiens, A549, 72 h, 25 µM, read-out: growth inhibition category): 50 to 75%

O=C1C=C(OCc2cn(-c3ccc(Cl)cc3)nn2)C(=O)c2ccccc21 [Compound 3]
growth inhibition category ([2]; B16-F10, 72 h, all concentrations tested (25 µM to 0.8 µM)): low (low when below 50%)
growth inhibition category ([4]; C6, 72 h, all concentrations tested (25 µM to 0.8 µM)): low (low when below 50%)
growth inhibition category ([7]; A549, 72 h, all concentrations tested (25 µM to 0.8 µM)): low (low when below 50%)

COc1cccc2c1C(=O)c1c(O)c3c(c(O)c1C2=O)C[C@@](O)(C(=O)CO)C[C@@H]3O[C@H]1C[C@H](N)[C@H](O)[C@H](C)O1 [Doxorubicin, Doxorubicin Hydrochloride, reference compound]
wound closure (wound restored) ([1]; A549, 0.2 μM (positive control), 48 h): 78%
IC50 ([2]; listed as Doxorrubicin): 0.6 µM
IC50 ([2]; Mus musculus, B16-F10, 72 h): < 0.6 µM
IC50 [7]: < 0.6 µM
inhibition at 0.2 µM ([8]; A549, 0.2 μM (positive control)): 96.1%
changes in the percentage of living, apoptotic or necrotic cells ([9]; A549, 0.2 µM): not possible to observe changes

O=C1C=C(O)C(=O)c2ccccc21 [Lawsone, 2-hydroxy-1,4-naphtoquinone]
IC50 ([4]; Rattus norvegicus, C6, 72 h): 22.6 µM
IC50 ([7]; Homo sapiens, A549, 72 h): 53 µM
